Tests used:
Hairless Ratten = assay: Measurement of skin blood flow (laser Doppler flowmeter) after topical application, Beispiel 12; type: in vivo; details: topical on abdomen of anaesthetised female hairless rats, solvent 5% Isopropylmyristat in Ethanol, measured 2 and 4 h after application (time not given)
Protocol: (§1) Messung der Hautdurchblutung
Hairless Ratten (weiblich) werden gewogen (200-250g), mit 0,5ml 25% Urethan in 0,9% NaCl /100g/kg (2/3 i.p., 1/3 s.c.) narkotisiert und auf eine vorgeheizte Wärmeplatte der Fa. Jowitherm gelegt.
Auf dem Abdomen wird eine kreisförmige Fläche von 34mm Durchmesser ca. 2cm unterhalb der Sternumspitze markiert. Pro Tier wird eine Testsubstanz appliziert, die mit dem Randomisierungsprogramm RDRK zugeordnet wurde. Als Lösungsmittel wird 5% Isopropylmyristat in Ethanol verwendet. […] der jeweiligen Testlösung werden mit einer Eppendorf-Pipette gleichmäßig aufgetragen. Danach wird die behandelte Haut nochmals in drei Meßflächen von jeweils 18mm Druchmesser unterteilt und markiert. Die Hautdurchblutung wird 2 und 4 Stunden ( und gegebenenfalls 6 Stunden) nach der Applikation mit einem Laser Doppler Flowmeter (Firma Perimed) gemessen. Es werden an jedem Tier Dreifachmessungen an den markierten Stellen durchgeführt.

haarlosen Ratten = assay: Measurement of skin blood flow (non-invasive laser Doppler method) after topical application, Beispiel 13; type: in vivo, Ratten (Wister; hairless ); details: 4 h after local application on abdominal skin of anaesthetised (Urethan) hairless rats, solvent Isopropylmyristat in Ethanol 5/95 v/v
Description: as §1
Die Hautdurchblutung wurde mit der nichtinvasiven Laser-Doppler Methode bestimmt. Die Messsungen wurden 4 Stunden nach der lokalen Applikation der Substanzen auf der Bauchhaut von narkotisierten ( Urethan ) haarlosen Ratten* durchgeführt. Als Lösungsmittel wurde Isopropylmyristat in Ethanol verwendet ( 5/95; v/v ).
* Für diese Untersuchungen wurden weibliche Ratten (Wister; hairless ) mit einem Körpergewicht von 200-250g verwendet.

[1] = applied concentration 0,001 Prozent
[2] = applied concentration 0,003 Prozent

O=C(CCC/C=C\C[C@@H]1[C@@H](/C=C/[C@@H](O)C2CCCCC2)[C@H](O)C[C@H]1Cl)OCC(=O)c1ccccc1 [Beispiel 1, (5Z,13E)-(9R,11R,15S)-9-Chlor-15-cyclohexyl-11,15-dihydroxy-16,17,18,19,20-pentanor-5,13-prostadiensäurephenacylester]
Steigerung der Hautdurchblutung in Prozent (Hairless Ratten; [1]): 50 Prozent | Steigerung der Hautdurchblutung in Prozent (Hairless Ratten; [2]): 160 Prozent

O=C(COC/C=C\C[C@@H]1[C@@H](/C=C/[C@@H](O)C2CCCCC2)[C@H](O)C[C@H]1Cl)OCC(=O)c1ccccc1 [Beispiel 3, (5Z,13E)-(9R,11R,15S)-9-Chlor-3-oxa-15-cyclohexyl-11,15-dihydroxy-16,17,18,19,20-pentanor-5,13-prostadiensäurephenacylester]
Steigerung der Hautdurchblutung in Prozent (Hairless Ratten; [1]): 139 Prozent | Steigerung der Hautdurchblutung in Prozent (Hairless Ratten; [2]): 146 Prozent

CCOC(=O)CCC/C=C\C[C@@H]1[C@@H](/C=C/[C@@H](O)C2CCCCC2)[C@H](O)C[C@H]1Cl [Beispiel 6, (5Z,13E)-(9R,11R,15S)-9-Chlor-15-cyclohexyl-11,15-dihydroxy-16,17,18,19,20-pentanor-5,13-prostadiensäureethylester]
Steigerung der Hautdurchblutung in Prozent (haarlosen Ratten; [1]): 115 Prozent | Steigerung der Hautdurchblutung in Prozent (haarlosen Ratten; [2]): 197 Prozent

CC(C)OC(=O)CCC/C=C\C[C@@H]1[C@@H](/C=C/[C@@H](O)C2CCCCC2)[C@H](O)C[C@H]1Cl [Beispiel 7, (5Z,13E)-(9R,11R,15S)-9-Chlor-15-cydohexyl-11,15-dihydroxy-16,17,18,19,20-pentanor-5,13-prostadiensäureisopropylester]
Steigerung der Hautdurchblutung in Prozent (haarlosen Ratten; [1]): 93 Prozent | Steigerung der Hautdurchblutung in Prozent (haarlosen Ratten; [2]): 183 Prozent

CCOC(=O)COC/C=C\C[C@@H]1[C@@H](/C=C/[C@@H](O)C2CCCCC2)[C@H](O)C[C@H]1Cl [Beispiel 9, (5Z,13E)-(9R,11R,15S)-9-Chlor-3-oxa-15-cyclohexyl-11,15-dihydroxy-16,17,18,19,20-pentanor-5,13-prostadiensäureethylester]
Steigerung der Hautdurchblutung in Prozent (haarlosen Ratten; [1]): 200 Prozent | Steigerung der Hautdurchblutung in Prozent (haarlosen Ratten; [2]): 325 Prozent

CC(C)OC(=O)COC/C=C\C[C@@H]1[C@@H](/C=C/[C@@H](O)C2CCCCC2)[C@H](O)C[C@H]1Cl [Beispiel 10, (5Z,13E)-(9R,11R,15S)-9-Chlor-3-oxa-15-cyclohexyl-11,15-dihydroxy-16,17,18,19,20-pentanor-5,13-prostadiensäureisopropylester]
Steigerung der Hautdurchblutung in Prozent (haarlosen Ratten; [1]): 232 Prozent | Steigerung der Hautdurchblutung in Prozent (haarlosen Ratten; [2]): 307 Prozent

Reference: patent publication EP0656889B1, “9-CHLOROPROSTAGLANDIN ESTERS AND AMIDES AND THEIR USE IN THE PREPARATION OF DRUGS” (SCHERING AKTIENGESELLSCHAFT, priority 1992, dated 1994)
